Data reported in the kinase profiling compilation of Christmann-Franck et al. (2016).

Key:
Test in all cases: radiometric filter-binding kinase assay, Kinase HotSpot
Conditions in all cases: compound 0.5 µM; ATP 10 µM
PRKCA (human) = PRKCA (human) (UniProt P17252)
MATK (human) = MATK (human) (UniProt P42679)
PRKG2 (human) = PRKG2 (human) (UniProt Q13237)
ULK2 (human) = ULK2 (human) (UniProt Q8IYT8)
CAMK2B (human) = CAMK2B (human) (UniProt Q13554)
ITK (human) = ITK (human) (UniProt Q08881)
STK3 (human) = STK3 (human) (UniProt Q13188)
RPS6KA1 KD1 KD2 (human) = RPS6KA1 KD1 KD2 (human) (UniProt Q15418)
PIM2 (human) = PIM2 (human) (UniProt Q9P1W9)
MAP4K5 (human) = MAP4K5 (human) (UniProt Q9Y4K4)
NEK1 (human) = NEK1 (human) (UniProt Q96PY6)
NEK1 (human), sequence (Q96PY6 whole entry, looked up): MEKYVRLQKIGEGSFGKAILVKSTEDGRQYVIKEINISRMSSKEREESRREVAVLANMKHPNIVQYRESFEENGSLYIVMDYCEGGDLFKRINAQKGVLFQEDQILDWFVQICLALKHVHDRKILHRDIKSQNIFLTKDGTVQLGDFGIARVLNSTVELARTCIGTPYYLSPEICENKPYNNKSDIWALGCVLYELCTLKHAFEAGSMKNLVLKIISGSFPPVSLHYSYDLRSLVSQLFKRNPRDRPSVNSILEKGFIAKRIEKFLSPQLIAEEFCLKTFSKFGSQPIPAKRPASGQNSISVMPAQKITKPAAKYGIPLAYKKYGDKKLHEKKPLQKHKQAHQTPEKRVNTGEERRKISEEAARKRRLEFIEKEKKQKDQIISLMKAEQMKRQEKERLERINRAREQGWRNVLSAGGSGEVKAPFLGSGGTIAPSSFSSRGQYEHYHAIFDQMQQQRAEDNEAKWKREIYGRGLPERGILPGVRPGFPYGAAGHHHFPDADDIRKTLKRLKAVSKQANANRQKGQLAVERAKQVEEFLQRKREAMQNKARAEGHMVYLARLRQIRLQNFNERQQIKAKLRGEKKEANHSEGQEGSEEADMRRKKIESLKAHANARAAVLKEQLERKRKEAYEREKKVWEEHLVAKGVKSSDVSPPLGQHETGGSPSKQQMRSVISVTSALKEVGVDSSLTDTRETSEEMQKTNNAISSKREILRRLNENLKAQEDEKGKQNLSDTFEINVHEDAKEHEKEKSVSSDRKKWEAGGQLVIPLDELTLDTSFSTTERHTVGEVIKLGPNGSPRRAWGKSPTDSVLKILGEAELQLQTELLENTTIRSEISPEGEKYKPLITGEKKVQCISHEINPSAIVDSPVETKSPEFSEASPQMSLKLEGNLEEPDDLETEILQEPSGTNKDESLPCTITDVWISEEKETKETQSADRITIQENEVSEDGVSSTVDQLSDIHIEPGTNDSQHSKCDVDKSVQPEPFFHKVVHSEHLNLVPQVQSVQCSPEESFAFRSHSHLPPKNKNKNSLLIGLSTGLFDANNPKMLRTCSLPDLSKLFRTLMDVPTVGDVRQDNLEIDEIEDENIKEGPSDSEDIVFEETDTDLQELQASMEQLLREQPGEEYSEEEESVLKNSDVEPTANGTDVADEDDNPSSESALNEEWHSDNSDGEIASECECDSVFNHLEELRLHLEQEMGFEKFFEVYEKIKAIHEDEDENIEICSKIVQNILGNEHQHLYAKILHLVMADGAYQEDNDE

SGK3 (human) = SGK3 (human) (UniProt Q96BR1)
EGFR (human) = EGFR (human) (UniProt P00533)
GSK3A (human) = GSK3A (human) (UniProt P49840)
GSK3A (human), sequence (P49840 whole entry, looked up): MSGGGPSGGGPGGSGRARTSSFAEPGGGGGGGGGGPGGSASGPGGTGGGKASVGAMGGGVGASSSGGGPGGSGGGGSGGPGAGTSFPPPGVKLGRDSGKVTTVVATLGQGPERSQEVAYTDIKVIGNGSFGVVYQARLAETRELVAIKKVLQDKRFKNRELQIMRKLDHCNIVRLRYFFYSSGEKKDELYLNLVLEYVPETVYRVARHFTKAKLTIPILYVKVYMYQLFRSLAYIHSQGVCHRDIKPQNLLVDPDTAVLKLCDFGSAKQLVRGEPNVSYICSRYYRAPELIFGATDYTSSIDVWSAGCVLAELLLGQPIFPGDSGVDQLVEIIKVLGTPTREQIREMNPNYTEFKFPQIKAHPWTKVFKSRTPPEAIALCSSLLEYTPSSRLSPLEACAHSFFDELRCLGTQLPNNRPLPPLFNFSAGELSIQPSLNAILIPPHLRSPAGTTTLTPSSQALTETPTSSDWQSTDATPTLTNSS

OXSR1 (human) = OXSR1 (human) (UniProt O95747)
EPHA5 (human) = EPHA5 (human) (UniProt P54756)
MAPK10 (human) = MAPK10 (human) (UniProt P53779)
TSSK1B (human) = TSSK1B (human) (UniProt Q9BXA7)
PASK (human) = PASK (human) (UniProt Q96RG2)
RET (human) = RET (human) (UniProt P07949)
FES (human) = FES (human) (UniProt P07332)
PRKCI (human) = PRKCI (human) (UniProt P41743)
TYRO3 (human) = TYRO3 (human) (UniProt Q06418)
MUSK (human) = MUSK (human) (UniProt O15146)
MAP3K10 (human) = MAP3K10 (human) (UniProt Q02779)
MINK1 (human) = MINK1 (human) (UniProt Q8N4C8)
[1] = target: JAK1 JH1 catalytic (human) (UniProt P23458)
CSF1R (human) = CSF1R (human) (UniProt P07333)
PIM3 (human) = PIM3 (human) (UniProt Q86V86)
SIK2 (human) = SIK2 (human) (UniProt Q9H0K1)
CAMK4 (human) = CAMK4 (human) (UniProt Q16566)
RPS6KA2 KD1 KD2 (human) = RPS6KA2 KD1 KD2 (human) (UniProt Q15349)
CDK3 CCNE1 (human) = CDK3 CCNE1 (human) (UniProt Q00526+P24864)
CDK3 CCNE1 (human), sequence (P24864 whole entry, looked up): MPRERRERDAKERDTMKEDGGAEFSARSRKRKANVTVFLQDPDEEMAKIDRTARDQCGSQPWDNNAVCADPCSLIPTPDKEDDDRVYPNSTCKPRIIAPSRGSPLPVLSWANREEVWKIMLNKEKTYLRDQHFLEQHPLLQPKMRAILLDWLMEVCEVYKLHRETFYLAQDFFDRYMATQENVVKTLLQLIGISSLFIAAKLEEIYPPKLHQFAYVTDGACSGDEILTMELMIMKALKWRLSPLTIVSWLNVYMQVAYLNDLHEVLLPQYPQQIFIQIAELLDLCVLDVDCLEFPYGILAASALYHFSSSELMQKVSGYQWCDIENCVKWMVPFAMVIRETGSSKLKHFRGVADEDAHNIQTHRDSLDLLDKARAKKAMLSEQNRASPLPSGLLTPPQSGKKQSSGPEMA
CDK3 CCNE1 (human), sequence (Q00526 whole entry, looked up): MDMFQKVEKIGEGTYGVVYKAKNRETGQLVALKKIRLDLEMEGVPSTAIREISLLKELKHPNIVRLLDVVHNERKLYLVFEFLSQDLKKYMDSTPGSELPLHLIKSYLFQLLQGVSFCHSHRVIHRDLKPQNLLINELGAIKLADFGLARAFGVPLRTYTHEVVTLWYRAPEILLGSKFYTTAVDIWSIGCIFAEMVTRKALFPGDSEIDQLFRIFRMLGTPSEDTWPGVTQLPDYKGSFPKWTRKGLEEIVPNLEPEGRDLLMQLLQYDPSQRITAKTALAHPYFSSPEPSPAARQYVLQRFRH

RIPK2 (human) = RIPK2 (human) (UniProt O43353)
MAP2K2 (human) = MAP2K2 (human) (UniProt P36507)
MAPKAPK2 (human) = MAPKAPK2 (human) (UniProt P49137)
MAP4K4 (human) = MAP4K4 (human) (UniProt O95819)
CDK6 CCND3 (human) = CDK6 CCND3 (human) (UniProt P30281+Q00534)
IKBKB (human) = IKBKB (human) (UniProt O14920)
TEK (human) = TEK (human) (UniProt Q02763)
TEK (human), sequence (Q02763 whole entry, looked up): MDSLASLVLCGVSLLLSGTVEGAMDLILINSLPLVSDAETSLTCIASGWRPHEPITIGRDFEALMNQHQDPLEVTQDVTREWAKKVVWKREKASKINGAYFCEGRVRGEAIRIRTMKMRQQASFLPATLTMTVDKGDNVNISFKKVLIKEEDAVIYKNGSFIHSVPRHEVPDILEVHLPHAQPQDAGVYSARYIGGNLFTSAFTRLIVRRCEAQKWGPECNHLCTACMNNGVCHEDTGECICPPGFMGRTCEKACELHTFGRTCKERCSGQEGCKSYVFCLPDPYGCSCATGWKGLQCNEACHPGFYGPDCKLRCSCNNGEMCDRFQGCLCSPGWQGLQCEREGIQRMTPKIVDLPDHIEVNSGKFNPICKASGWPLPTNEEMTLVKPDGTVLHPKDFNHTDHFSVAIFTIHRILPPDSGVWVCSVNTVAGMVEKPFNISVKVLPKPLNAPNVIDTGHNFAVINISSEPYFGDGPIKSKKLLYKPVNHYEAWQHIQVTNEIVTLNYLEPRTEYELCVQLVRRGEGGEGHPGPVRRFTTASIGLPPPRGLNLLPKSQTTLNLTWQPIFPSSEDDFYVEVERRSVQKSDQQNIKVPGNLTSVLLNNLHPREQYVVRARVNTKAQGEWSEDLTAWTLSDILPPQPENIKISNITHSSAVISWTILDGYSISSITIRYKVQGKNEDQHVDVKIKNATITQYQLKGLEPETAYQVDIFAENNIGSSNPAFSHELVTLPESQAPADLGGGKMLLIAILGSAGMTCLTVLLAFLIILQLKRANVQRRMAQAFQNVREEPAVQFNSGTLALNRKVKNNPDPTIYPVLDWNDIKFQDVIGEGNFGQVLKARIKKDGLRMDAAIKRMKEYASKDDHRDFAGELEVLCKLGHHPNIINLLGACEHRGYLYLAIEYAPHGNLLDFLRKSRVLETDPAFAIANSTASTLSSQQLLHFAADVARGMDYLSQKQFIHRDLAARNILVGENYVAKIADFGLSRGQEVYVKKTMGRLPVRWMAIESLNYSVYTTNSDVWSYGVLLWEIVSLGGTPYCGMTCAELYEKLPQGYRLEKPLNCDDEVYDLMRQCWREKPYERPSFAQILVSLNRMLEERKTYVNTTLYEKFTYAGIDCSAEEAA

MST1R (human) = MST1R (human) (UniProt Q04912)
BRSK1 (human) = BRSK1 (human) (UniProt Q8TDC3)

ITK (human), sequence (Q08881 whole entry, looked up): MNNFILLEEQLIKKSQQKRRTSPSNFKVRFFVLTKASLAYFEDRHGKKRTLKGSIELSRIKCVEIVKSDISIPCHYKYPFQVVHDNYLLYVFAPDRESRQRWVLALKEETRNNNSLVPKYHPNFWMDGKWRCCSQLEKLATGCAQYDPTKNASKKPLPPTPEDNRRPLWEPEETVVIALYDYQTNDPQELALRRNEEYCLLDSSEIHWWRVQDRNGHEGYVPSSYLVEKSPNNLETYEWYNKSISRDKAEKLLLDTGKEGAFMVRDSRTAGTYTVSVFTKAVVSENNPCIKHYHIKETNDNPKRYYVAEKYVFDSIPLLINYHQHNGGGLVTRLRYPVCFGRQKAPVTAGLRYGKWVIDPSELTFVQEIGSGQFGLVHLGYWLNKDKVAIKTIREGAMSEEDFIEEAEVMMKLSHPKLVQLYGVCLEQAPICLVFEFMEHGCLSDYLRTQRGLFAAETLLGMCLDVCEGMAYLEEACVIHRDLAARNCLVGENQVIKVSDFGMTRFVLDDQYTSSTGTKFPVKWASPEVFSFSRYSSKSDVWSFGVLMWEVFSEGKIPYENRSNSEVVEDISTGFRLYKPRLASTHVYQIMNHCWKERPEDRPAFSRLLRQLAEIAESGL
PRKG2 (human), sequence (Q13237 whole entry, looked up): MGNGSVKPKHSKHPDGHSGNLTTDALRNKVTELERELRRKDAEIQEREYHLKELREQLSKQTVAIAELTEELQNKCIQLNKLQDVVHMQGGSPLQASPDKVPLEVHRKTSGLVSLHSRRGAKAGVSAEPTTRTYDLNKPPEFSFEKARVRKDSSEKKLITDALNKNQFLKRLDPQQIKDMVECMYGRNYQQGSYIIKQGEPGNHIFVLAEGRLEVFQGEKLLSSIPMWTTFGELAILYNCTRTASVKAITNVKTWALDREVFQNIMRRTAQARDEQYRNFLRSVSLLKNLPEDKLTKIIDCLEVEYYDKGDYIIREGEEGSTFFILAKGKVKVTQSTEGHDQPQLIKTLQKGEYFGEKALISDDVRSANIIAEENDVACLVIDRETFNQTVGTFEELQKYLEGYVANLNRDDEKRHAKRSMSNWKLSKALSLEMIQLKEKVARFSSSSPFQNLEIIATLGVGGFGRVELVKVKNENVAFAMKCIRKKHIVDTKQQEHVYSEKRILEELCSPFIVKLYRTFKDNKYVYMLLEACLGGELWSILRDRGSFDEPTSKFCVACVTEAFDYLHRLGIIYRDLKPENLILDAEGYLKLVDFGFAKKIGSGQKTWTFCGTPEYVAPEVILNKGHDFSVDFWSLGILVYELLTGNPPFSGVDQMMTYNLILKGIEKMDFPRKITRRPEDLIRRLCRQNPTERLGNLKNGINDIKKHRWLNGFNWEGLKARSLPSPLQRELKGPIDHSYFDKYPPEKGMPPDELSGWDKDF

Work on `Nc1cccc(-c2cc3c(Oc4cccc(O)c4)ncnc3[nH]2)c1` yielded a residual activity (PRKCA (human)) of 95.6%, a residual activity (MATK (human)) of 97.8% and a residual activity (PRKG2 (human)) of 108%. For the same compound, the residual activity (ULK2 (human)) was 97.5%, the residual activity (CAMK2B (human)) was 101% and the residual activity (ITK (human)) was 102%. The residual activity (STK3 (human)) was 109%, the residual activity (RPS6KA1 KD1 KD2 (human)) was 105% and the residual activity (PIM2 (human)) was 108%. For the same compound, the residual activity (MAP4K5 (human)) was 18.4%, the residual activity (NEK1 (human)) was 92.3% and the residual activity (SGK3 (human)) was 117%. For the same compound, the residual activity (EGFR (human)) was 7.89%, the residual activity (GSK3A (human)) was 41.6% and the residual activity (OXSR1 (human)) was 119%. It also gave a residual activity (EPHA5 (human)) of 41.7%, a residual activity (MAPK10 (human)) of 89.4% and a residual activity (TSSK1B (human)) of 91.1%. It also gave a residual activity (PASK (human)) of 96.2%, a residual activity (RET (human)) of -0.229% and a residual activity (FES (human)) of 73.8%. The residual activity (PRKCI (human)) was 84.6%, the residual activity (TYRO3 (human)) was 52.1% and the residual activity (MUSK (human)) was 62.8%. The residual activity (MAP3K10 (human)) was 79.2%, the residual activity (MINK1 (human)) was 34.7% and the residual activity [1] was 106%. It also gave a residual activity (CSF1R (human)) of 13.6%, a residual activity (PIM3 (human)) of 129% and a residual activity (SIK2 (human)) of 69.4%. For the same compound, the residual activity (CAMK4 (human)) was 94.9%, the residual activity (RPS6KA2 KD1 KD2 (human)) was 91.5% and the residual activity (CDK3 CCNE1 (human)) was 82.3%. For the same compound, the residual activity (RIPK2 (human)) was 30.5%, the residual activity (MAP2K2 (human)) was 104% and the residual activity (MAPKAPK2 (human)) was 108%. For the same compound, the residual activity (MAP4K4 (human)) was 12.5%, the residual activity (CDK6 CCND3 (human)) was 91.3% and the residual activity (IKBKB (human)) was 90.8%. It also gave a residual activity (TEK (human)) of 60.7%, a residual activity (MST1R (human)) of 103% and a residual activity (BRSK1 (human)) of 83.1%.

`CNc1cc2c(Nc3cccc(Br)c3)ncnc2cn1` gave a residual activity (PRKCA (human)) of 101%, a residual activity (MATK (human)) of 88% and a residual activity (PRKG2 (human)) of 102%. For the same compound, the residual activity (ULK2 (human)) was 119%, the residual activity (CAMK2B (human)) was 95.8% and the residual activity (ITK (human)) was 92.5%. It also gave a residual activity (STK3 (human)) of 99.9%, a residual activity (RPS6KA1 KD1 KD2 (human)) of 90.9% and a residual activity (PIM2 (human)) of 102%. It also gave a residual activity (MAP4K5 (human)) of 77.1%, a residual activity (NEK1 (human)) of 70.3% and a residual activity (SGK3 (human)) of 96.8%. It also gave a residual activity (EGFR (human)) of 1.99%, a residual activity (GSK3A (human)) of 95.9% and a residual activity (OXSR1 (human)) of 88.3%. The residual activity (EPHA5 (human)) was 106%, the residual activity (MAPK10 (human)) was 96.1% and the residual activity (TSSK1B (human)) was 60.2%. The residual activity (PASK (human)) was 86.9%, the residual activity (RET (human)) was 78.5% and the residual activity (FES (human)) was 96.9%. For the same compound, the residual activity (PRKCI (human)) was 96.4%, the residual activity (TYRO3 (human)) was 98.8% and the residual activity (MUSK (human)) was 81.3%. For the same compound, the residual activity (MAP3K10 (human)) was 90.1%, the residual activity (MINK1 (human)) was 91.9% and the residual activity [1] was 79.9%. The residual activity (CSF1R (human)) was 100%, the residual activity (PIM3 (human)) was 55.2% and the residual activity (SIK2 (human)) was 98.3%. The residual activity (CAMK4 (human)) was 104%, the residual activity (RPS6KA2 KD1 KD2 (human)) was 83.5% and the residual activity (CDK3 CCNE1 (human)) was 80.2%. The residual activity (RIPK2 (human)) was 69.2%, the residual activity (MAP2K2 (human)) was 90.4% and the residual activity (MAPKAPK2 (human)) was 99.6%. For the same compound, the residual activity (MAP4K4 (human)) was 86.9%, the residual activity (CDK6 CCND3 (human)) was 90.8% and the residual activity (IKBKB (human)) was 98.2%. For the same compound, the residual activity (TEK (human)) was 87.9%, the residual activity (MST1R (human)) was 73.9% and the residual activity (BRSK1 (human)) was 91.2%.
